Data on 34 compounds can be found in ChEMBL document CHEMBL1152254, “Synthesis, biological evaluation, and molecular modeling investigation of chiral 2-(4-chloro-phenoxy)-3-phenyl-propanoic acid derivatives with PPARalpha and PPARgamma agonist activity” (Bioorg Med Chem, 2008).

What all share (type): cell-based
Experiment [1] deals with T1, Peroxisome proliferator-activated receptor gamma (Homo sapiens, UniProt P37231).
T1 sequence (P37231 whole entry): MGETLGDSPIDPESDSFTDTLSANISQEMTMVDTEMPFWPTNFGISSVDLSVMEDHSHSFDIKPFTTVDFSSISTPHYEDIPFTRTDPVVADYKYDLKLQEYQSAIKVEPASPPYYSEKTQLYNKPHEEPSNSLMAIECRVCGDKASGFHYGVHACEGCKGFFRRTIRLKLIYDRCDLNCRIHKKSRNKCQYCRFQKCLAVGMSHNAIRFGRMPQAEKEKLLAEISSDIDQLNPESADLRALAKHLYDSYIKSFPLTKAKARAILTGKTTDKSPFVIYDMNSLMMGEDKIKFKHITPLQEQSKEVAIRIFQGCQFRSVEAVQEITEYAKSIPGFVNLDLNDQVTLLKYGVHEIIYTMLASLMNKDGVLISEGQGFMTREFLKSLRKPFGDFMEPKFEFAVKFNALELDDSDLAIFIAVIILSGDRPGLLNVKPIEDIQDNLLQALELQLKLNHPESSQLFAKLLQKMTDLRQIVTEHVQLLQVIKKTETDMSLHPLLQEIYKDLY
The experiment is described as follows: (§1) Agonist activity at human PPARgamma ligand binding domain expressed in human HepG2 cells co-transfected with Gal4 by luciferase reporter gene assay. A general note: A reporter such as luciferase makes a cellular process visible.

In experiment [2] the target is T2, Peroxisome proliferator-activated receptor alpha (Homo sapiens) (UniProt Q07869).
T2 sequence (whole entry): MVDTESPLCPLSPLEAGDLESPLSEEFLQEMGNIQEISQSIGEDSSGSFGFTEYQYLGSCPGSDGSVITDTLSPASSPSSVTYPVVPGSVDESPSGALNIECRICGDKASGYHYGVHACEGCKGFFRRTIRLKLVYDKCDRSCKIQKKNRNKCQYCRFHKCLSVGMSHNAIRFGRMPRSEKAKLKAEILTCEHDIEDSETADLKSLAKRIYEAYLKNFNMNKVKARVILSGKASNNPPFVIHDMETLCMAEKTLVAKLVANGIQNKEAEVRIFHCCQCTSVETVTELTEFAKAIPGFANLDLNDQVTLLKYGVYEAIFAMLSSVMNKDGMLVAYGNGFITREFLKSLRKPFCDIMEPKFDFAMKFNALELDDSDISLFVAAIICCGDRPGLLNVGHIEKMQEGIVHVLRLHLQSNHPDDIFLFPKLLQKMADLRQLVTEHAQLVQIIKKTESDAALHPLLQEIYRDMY
The experiment is described as follows: Agonist activity at human PPARalpha ligand binding domain expressed in human HepG2 cells co-transfected with Gal4 by luciferase reporter gene assay relative to Wy-14,643.

Experiment [3] concerns the target T3, Peroxisome proliferator-activated receptor alpha (Homo sapiens, UniProt Q07869).
T3 sequence (Q07869 whole entry): T2 sequence (whole entry)
The experiment is described as follows: (§2) Agonist activity at human PPARalpha ligand binding domain expressed in human HepG2 cells co-transfected with Gal4 by luciferase reporter gene assay.

The target of experiment [4] is T4, Peroxisome proliferator-activated receptor gamma (Homo sapiens) (UniProt P37231).
T4 sequence (whole entry): T1 sequence (P37231 whole entry)
Described as §1.

For experiment [5], the target named is T2, Peroxisome proliferator-activated receptor alpha (Homo sapiens). The experiment is described as §2.

Calls of active or inactive are those of the source. No cut-off for these calls is given here.

As to `Cc1ccccc1CC(Oc1ccc(Cl)cc1)C(=O)O` (racemic), the EC50 (as a rule, the midpoint of the concentration-response curve) came to 8540 nM in experiment [1] and 9250 nM in experiment [3]. The compound further yielded an Efficacy in experiment [2] of 50%.
Compound `O=C(O)C(Cc1ccccc1)Oc1ccc(Cl)cc1Br` (racemic) gave an Efficacy in experiment [2] of 41%. In addition, the EC50 in experiment [3] came to 1650 nM.
`O=C(O)C(Cc1ccccc1-c1ccccc1)Oc1ccc(Cl)cc1` (stereo not drawn): the result in experiment [4], in experiment [2] and in experiment [5] was inactive.
In the case of `Cc1cccc(Nc2cc(Cl)nc(SCC(=O)O)n2)c1C`, the outcome in experiment [2] and in experiment [5] was inactive.
In the case of `O=C(O)C(Cc1ccccc1Oc1ccccc1)Oc1ccc(Cl)cc1` (racemic), in experiment [4], the result was inactive. This compound yielded an Efficacy in experiment [2] of 40%. Moreover, in experiment [3], the EC50 is 1140 nM.
Regarding `O=C(O)C(Cc1cccc(Oc2ccccc2)c1)Oc1ccc(Cl)cc1` (racemic), the EC50 turned out to be 3060 nM in experiment [1] and 240 nM in experiment [3]. The Efficacy in experiment [2] amounted to 57%.
Consider `O=C(O)[C@H](Cc1ccccc1)Oc1ccc(Cl)cc1`, for which the values for the concentration for a half-maximal effect (EC50) in experiment [1] and in experiment [3] were 7940 nM and 14500 nM, respectively. Besides, in experiment [2], the Efficacy was determined as 48%.
As for `O=C(O)[C@@H](Cc1ccc(Oc2ccccc2)cc1)Oc1ccc(Cl)cc1`, the figures for the EC50 in experiment [1] and in experiment [3] were 11300 nM and 700 nM, respectively. The Efficacy in experiment [2] is 15%.
As to `CCCc1cc(Cl)ccc1OC(Cc1ccccc1)C(=O)O` (stereo not drawn), the Efficacy in experiment [2] was found to be 18%.
Consider `O=C(O)C(Cc1ccccc1)Oc1ccc(Cl)c(Cl)c1` (racemic), for which the EC50 in experiment [1] is 2550 nM; in experiment [3], 4490 nM. Also, the Efficacy in experiment [2] is 27%.
As to `O=C(O)C(Cc1ccccc1Cl)Oc1ccc(Cl)cc1` (racemic), the figures for the EC50 in experiment [1] and in experiment [3] were 2230 nM and 2180 nM, respectively. The Efficacy in experiment [2] worked out at 44%.
Take `CCCc1ccc(CC(Oc2ccc(Cl)cc2)C(=O)O)cc1` (stereo not drawn): the EC50 was 1390 nM in experiment [1] and 350 nM in experiment [3]. Besides, the Efficacy in experiment [2] was 39%.
Take `O=C(O)[C@H](Cc1ccc(C(F)(F)F)cc1)Oc1ccc(Cl)cc1`: the EC50 in experiment [1] amounted to 3650 nM; in experiment [3], 420 nM. This compound returned an Efficacy in experiment [2] of 69%.
`Cc1cc(Cl)ccc1OC(Cc1ccccc1)C(=O)O` (racemic): the Efficacy in experiment [2] turned out to be 34%.
With `Cc1ccc(CC(Oc2ccc(Cl)cc2)C(=O)O)cc1` (racemic), the figures for the EC50 in experiment [1] and in experiment [3] were 4360 nM and 2810 nM, respectively. Besides, in experiment [2], the Efficacy turned out to be 53%.
On to `O=C(O)C(Cc1ccccc1Br)Oc1ccc(Cl)cc1` (racemic), for which the EC50 in experiment [1] was determined as 2480 nM; in experiment [3], 2250 nM. The same compound displayed an Efficacy in experiment [2] of 57%.
For the compound `O=C(O)C(Cc1c(Cl)cccc1Cl)Oc1ccc(Cl)cc1` (racemic), the result in experiment [4], in experiment [2] and in experiment [5] was inactive.
Regarding `Cc1cccc(C)c1CC(Oc1ccc(Cl)cc1)C(=O)O` (racemic), the result in experiment [4], in experiment [2] and in experiment [5] was inactive.
Turning to `CCCc1ccccc1CC(Oc1ccc(Cl)cc1)C(=O)O` (stereo not drawn), the values for the EC50 in experiment [1] and in experiment [3] were 3680 nM and 1430 nM, respectively. For the same compound, in experiment [2], the Efficacy came out at 43%.
Turning to `O=C(O)C(Cc1ccc(Oc2ccccc2)cc1)Oc1ccc(Cl)cc1` (racemic), the EC50 came out at 1060 nM in experiment [1] and 64 nM in experiment [3]. Besides, the Efficacy in experiment [2] was 58%.
`CCCCCCc1ccccc1CC(Oc1ccc(Cl)cc1)C(=O)O` (stereo not drawn): the outcome in experiment [4], in experiment [2] and in experiment [5] was inactive.
The compound `CCCCCCc1ccc(CC(Oc2ccc(Cl)cc2)C(=O)O)cc1` (stereo not drawn) gave an Efficacy in experiment [2] of 56%. The compound also registered an EC50 in experiment [3] of 450 nM.
Take `O=C(O)[C@H](Cc1ccc(-c2ccccc2)cc1)Oc1ccc(Cl)cc1`: the figures for the EC50 in experiment [1] and in experiment [3] were 1120 nM and 49 nM, respectively. In addition, the Efficacy in experiment [2] stood at 70%.
On to `CCCCCCc1cc(Cl)ccc1OC(Cc1ccccc1)C(=O)O` (racemic), for which the outcome in experiment [4], in experiment [2] and in experiment [5] was inactive.
Take `O=C(O)C(Cc1ccccc1C(F)(F)F)Oc1ccc(Cl)cc1` (racemic): the EC50 in experiment [1] turned out to be 4030 nM; in experiment [3], 2490 nM. In experiment [2], this compound came in with an Efficacy of 43%.
Take `O=C(O)[C@H](Cc1ccc(-c2cccs2)cc1)Oc1ccc(Cl)cc1`: the EC50 in experiment [1] came out at 590 nM; in experiment [3], 65 nM. For the same compound, the Efficacy in experiment [2] amounted to 71%.
The matching figures for `O=C(O)C(Cc1ccc(Cl)cc1)Oc1ccc(Cl)cc1` (racemic): 3160 nM, 2230 nM and 49%.
Regarding `O=C(O)C(Cc1ccccc1)Oc1ccc(Cl)cc1Cl` (racemic), in experiment [2], the Efficacy came to 50%. Besides, in experiment [3], the EC50 came out at 2120 nM.
Turning to `O=C(O)[C@H](Cc1ccc(Oc2ccccc2)cc1)Oc1ccc(Cl)cc1`, the EC50 in experiment [1] amounted to 870 nM; in experiment [3] it was 27 nM. In experiment [2], this compound had an Efficacy of 68%.
Take `O=C(O)C(Cc1ccccc1)Oc1c(Cl)cc(Cl)cc1Cl` (racemic): the result in experiment [4], in experiment [2] and in experiment [5] was inactive.
For the compound `CN(CCOc1ccc(CC2SC(=O)NC2=O)cc1)c1ccccn1` (stereo not drawn), the outcome in experiment [4] was inactive. In addition, the Efficacy in experiment [2] amounted to 100%.
As for `O=C(O)C(Cc1ccc(Br)cc1)Oc1ccc(Cl)cc1` (racemic), the values for the EC50 in experiment [1] and in experiment [3] were 2070 nM and 1100 nM, respectively. Besides, the Efficacy in experiment [2] was 46%.
For the compound `O=C(O)C(Cc1ccccc1)Oc1ccc(Cl)cc1-c1ccccc1` (racemic), the outcome in experiment [4], in experiment [2] and in experiment [5] was inactive.
In the case of `Cc1cc(Cl)cc(C)c1OC(Cc1ccccc1)C(=O)O` (racemic), the result in experiment [4], in experiment [2] and in experiment [5] was inactive.
